Test results reported in PMC5218480 (PLoS ONE, 2017).

Tested on: MV-4-11 cells
Assay: Gene expression microarray analysis (Affymetrix PrimeView) and GSEA
Format: cell-based, human
Parameters: RFU PODN (11730768_x_at) / Fold change /veh PODN (11730768_x_at) / RFU LINC00158 (11744669_a_at) / Fold change /veh LINC00158 (11744669_a_at) / RFU DUSP10 (11751237_a_at) / Fold change /veh DUSP10 (11751237_a_at) / RFU ID3 (11757404_x_at) / Fold change /veh ID3 (11757404_x_at) / RFU PLEKHG5 (11737974_s_at) / Fold change /veh PLEKHG5 (11737974_s_at) / RFU LRRC4B (11730491_at) / Fold change /veh LRRC4B (11730491_at) / RFU GIMAP4 (11747438_a_at) / Fold change /veh GIMAP4 (11747438_a_at) / RFU KRT8 (11758183_x_at) / Fold change /veh KRT8 (11758183_x_at) / RFU CNN1 (11734310_a_at) / Fold change /veh CNN1 (11734310_a_at) / RFU VPS37D (11726825_at) / Fold change /veh VPS37D (11726825_at) / RFU C10orf10 (11716522_x_at) / Fold change /veh C10orf10 (11716522_x_at) / RFU KIR2DL2 /// KIR2DL4 /// KIR2DL5A /// KIR2DL5B /// KIR2DS1 /// KIR2DS2 /// KIR2DS3 /// KIR2DS4 /// KIR3DL3 /// KIR3DL3 /// KIR3DS1 (11738374_at) / Fold change /veh KIR2DL2 /// KIR2DL4 /// KIR2DL5A /// KIR2DL5B /// KIR2DS1 /// KIR2DS2 /// KIR2DS3 /// KIR2DS4 /// KIR3DL3 /// KIR3DL3 /// KIR3DS1 (11738374_at) / RFU C1QL1 (11718748_at) / Fold change /veh C1QL1 (11718748_at) / RFU TMPRSS4 (11747572_a_at) / Fold change /veh TMPRSS4 (11747572_a_at) / RFU HAMP (11756126_x_at) / Fold change /veh HAMP (11756126_x_at) / RFU RNFT2 (11725882_a_at) / Fold change /veh RNFT2 (11725882_a_at) / RFU NR4A2 (11747474_a_at) / Fold change /veh NR4A2 (11747474_a_at) / RFU ABCC12 (11746883_a_at) / Fold change /veh ABCC12 (11746883_a_at) / RFU TMEM136 (11760407_x_at) / Fold change /veh TMEM136 (11760407_x_at) / RFU CLDN22 /// WWC2 (11732394_at) / Fold change /veh CLDN22 /// WWC2 (11732394_at) / RFU HLA-DPB1 (11760878_x_at) / Fold change /veh HLA-DPB1 (11760878_x_at) / RFU SPINT1 (11716480_a_at) / Fold change /veh SPINT1 (11716480_a_at) / RFU GAP43 (11754022_s_at) / Fold change /veh GAP43 (11754022_s_at) / RFU A4GNT (11735810_at) / Fold change /veh A4GNT (11735810_at) / RFU PRB3 (11715151_x_at) / Fold change /veh PRB3 (11715151_x_at) / RFU TUBB4B (11761932_at) / Fold change /veh TUBB4B (11761932_at) / RFU CAPN14 (11732068_a_at) / Fold change /veh CAPN14 (11732068_a_at) / RFU TMCC2 (11721928_a_at) / Fold change /veh TMCC2 (11721928_a_at) / RFU IRGQ (11745062_a_at) / Fold change /veh IRGQ (11745062_a_at) / RFU FAM174B (11720279_a_at) / Fold change /veh FAM174B (11720279_a_at) / RFU TMPRSS4 (11748680_a_at) / Fold change /veh TMPRSS4 (11748680_a_at) / RFU FAM212B (11763350_a_at) / Fold change /veh FAM212B (11763350_a_at) / RFU PLEKHG5 (11743358_a_at) / Fold change /veh PLEKHG5 (11743358_a_at) / RFU ZSCAN30 (11745921_a_at) / Fold change /veh ZSCAN30 (11745921_a_at) / RFU CMKLR1 (11741424_a_at) / Fold change /veh CMKLR1 (11741424_a_at) / RFU LOC101060620 /// MAPK8IP1 (11723275_at) / Fold change /veh LOC101060620 /// MAPK8IP1 (11723275_at) / RFU SPTSSB (11747773_x_at) / Fold change /veh SPTSSB (11747773_x_at) / RFU PRSS12 (11739890_at) / Fold change /veh PRSS12 (11739890_at) / RFU BIN1 (11741810_x_at) / Fold change /veh BIN1 (11741810_x_at) / RFU WNT11 (11732464_a_at) / Fold change /veh WNT11 (11732464_a_at) / RFU C10orf10 (11716521_a_at) / Fold change /veh C10orf10 (11716521_a_at) / RFU C5orf56 (11738089_at) / Fold change /veh C5orf56 (11738089_at) / RFU CYB561 (11721691_x_at) / Fold change /veh CYB561 (11721691_x_at) / RFU ANKRD19P (11752326_a_at) / Fold change /veh ANKRD19P (11752326_a_at) / RFU OR2T12 /// OR2T33 /// OR2T8 (11738714_s_at) / Fold change /veh OR2T12 /// OR2T33 /// OR2T8 (11738714_s_at) / RFU VCAN (11748164_a_at) / Fold change /veh VCAN (11748164_a_at) / RFU JSRP1 (11732532_at) / Fold change /veh JSRP1 (11732532_at) / RFU KRTAP10-11 (11738290_x_at) / Fold change /veh KRTAP10-11 (11738290_x_at) / RFU MYO3A (11730013_a_at) / Fold change /veh MYO3A (11730013_a_at) / RFU EBF3 (11725865_a_at) / Fold change /veh EBF3 (11725865_a_at) / RFU CAMK2N1 (11719241_x_at) / Fold change /veh CAMK2N1 (11719241_x_at) / RFU C5orf56 (11738088_a_at) / Fold change /veh C5orf56 (11738088_a_at) / RFU OLFML3 (11715873_a_at) / Fold change /veh OLFML3 (11715873_a_at) / RFU LOC100653217 /// NTM (11731650_a_at) / Fold change /veh LOC100653217 /// NTM (11731650_a_at) / RFU MAPK11 (11762145_a_at) / Fold change /veh MAPK11 (11762145_a_at) / RFU FIZ1 (11724087_x_at) / Fold change /veh FIZ1 (11724087_x_at) / RFU OASL (11726364_x_at) / Fold change /veh OASL (11726364_x_at) / RFU SOX15 (11748057_x_at) / Fold change /veh SOX15 (11748057_x_at) / RFU CD79A (11719716_a_at) / Fold change /veh CD79A (11719716_a_at) / RFU HIST1H1D (11736915_at) / Fold change /veh HIST1H1D (11736915_at) / RFU CASKIN2 (11723855_a_at) / Fold change /veh CASKIN2 (11723855_a_at) / RFU LOC730098 (11760151_x_at) / Fold change /veh LOC730098 (11760151_x_at) / RFU OR4N2 (11742367_at) / Fold change /veh OR4N2 (11742367_at) / RFU PRRT2 (11749266_a_at) / Fold change /veh PRRT2 (11749266_a_at) / RFU SNX32 (11753110_a_at) / Fold change /veh SNX32 (11753110_a_at) / RFU CDHR5 (11726645_a_at) / Fold change /veh CDHR5 (11726645_a_at) / RFU RCAN1 (11760418_a_at) / Fold change /veh RCAN1 (11760418_a_at) / RFU FAM167A (11723789_a_at) / Fold change /veh FAM167A (11723789_a_at) / RFU FAM26E (11764081_at) / Fold change /veh FAM26E (11764081_at) / RFU ISYNA1 (11749810_s_at) / Fold change /veh ISYNA1 (11749810_s_at) / RFU ACY1 (11761880_at) / Fold change /veh ACY1 (11761880_at) / RFU 11764098_at / Fold change /veh 11764098_at / RFU SAMD14 (11745864_x_at) / Fold change /veh SAMD14 (11745864_x_at) / RFU NPB (11741838_a_at) / Fold change /veh NPB (11741838_a_at) / RFU TMPRSS6 (11731388_a_at) / Fold change /veh TMPRSS6 (11731388_a_at) / RFU KRTAP10-2 (11738614_at) / Fold change /veh KRTAP10-2 (11738614_at) / RFU ARHGAP8 /// PRR5-ARHGAP8 (11727945_x_at) / Fold change /veh ARHGAP8 /// PRR5-ARHGAP8 (11727945_x_at) / RFU KRTAP5-7 /// NADSYN1 (11734609_at) / Fold change /veh KRTAP5-7 /// NADSYN1 (11734609_at) / RFU RASL12 (11751679_a_at) / Fold change /veh RASL12 (11751679_a_at) / RFU CDKN2B (11736163_a_at) / Fold change /veh CDKN2B (11736163_a_at) / RFU PRF1 (11729649_at) / Fold change /veh PRF1 (11729649_at) / RFU, ZNF638 /// ZNF638-IT1 / Fold change vs veh, ZNF638 /// ZNF638-IT1 / RFU, PANK3 / Fold change vs veh, PANK3 / RFU, SH3YL1 / Fold change vs veh, SH3YL1 / RFU, ZEB2 / Fold change vs veh, ZEB2 / RFU, NRIP1 / Fold change vs veh, NRIP1 / RFU, PTTG1IP / Fold change vs veh, PTTG1IP / RFU, CAPN2 / Fold change vs veh, CAPN2 / RFU, MED14 / Fold change vs veh, MED14 / RFU, SNORA58 / Fold change vs veh, SNORA58 / RFU, C1orf63 / Fold change vs veh, C1orf63 / RFU, LRRFIP1 / Fold change vs veh, LRRFIP1 / RFU, NDUFAF7 / Fold change vs veh, NDUFAF7 / RFU, SLC12A2 / Fold change vs veh, SLC12A2 / RFU, IBTK / Fold change vs veh, IBTK / RFU, ESF1 / Fold change vs veh, ESF1 / Fold change vs veh, TMEM50B / RFU, TAOK1 / Fold change vs veh, TAOK1 / RFU, ACBD3 / Fold change vs veh, ACBD3 / RFU, TMA16 / Fold change vs veh, TMA16 / RFU, RWDD3 / Fold change vs veh, RWDD3 / RFU, BCAT1 / Fold change vs veh, BCAT1 / RFU, EDEM3 / Fold change vs veh, EDEM3 / RFU, TMEM33 / Fold change vs veh, TMEM33 / RFU, WDR75 / Fold change vs veh, WDR75 / RFU, AHCTF1 / Fold change vs veh, AHCTF1 / RFU, TFRC / Fold change vs veh, TFRC / RFU, ZDHHC17 / Fold change vs veh, ZDHHC17 / RFU, NOM1 / Fold change vs veh, NOM1 / RFU, ARL8B / Fold change vs veh, ARL8B / RFU, ZBTB11 / Fold change vs veh, ZBTB11 / RFU, TAMM41 / Fold change vs veh, TAMM41 / RFU, KIAA1704 /// LOC100996395 / Fold change vs veh, KIAA1704 /// LOC100996395 / RFU, ING1 / Fold change vs veh, ING1 / RFU, TRMT61B / Fold change vs veh, TRMT61B / RFU, FUBP3 / Fold change vs veh, FUBP3 / RFU, TP53 / Fold change vs veh, TP53 / RFU, TNKS2 / Fold change vs veh, TNKS2 / RFU, ZFP14 / Fold change vs veh, ZFP14 / RFU, ACTR2 / Fold change vs veh, ACTR2 / RFU, PPP3R1 / Fold change vs veh, PPP3R1 / RFU, PIK3R1 / Fold change vs veh, PIK3R1 / RFU, HNRNPA1 / Fold change vs veh, HNRNPA1 / RFU, RNF170 / Fold change vs veh, RNF170 / RFU, ZNF28 / Fold change vs veh, ZNF28 / RFU, RNGTT / Fold change vs veh, RNGTT / RFU, OGT / Fold change vs veh, OGT / RFU, BRD1 / Fold change vs veh, BRD1 / RFU, MARS / Fold change vs veh, MARS / RFU, ZNF655 / Fold change vs veh, ZNF655 / RFU, FAHD1 / Fold change vs veh, FAHD1 / RFU, BDP1 / Fold change vs veh, BDP1 / RFU, LRRCC1 / Fold change vs veh, LRRCC1 / RFU, ARID1A / Fold change vs veh, ARID1A / RFU, ZNF146 / Fold change vs veh, ZNF146 / RFU, ZNF330 / Fold change vs veh, ZNF330 / RFU, GPN3 / Fold change vs veh, GPN3 / RFU, C9orf123 / Fold change vs veh, C9orf123 / RFU, N4BP2L2 / Fold change vs veh, N4BP2L2 / RFU, ARFIP1 / Fold change vs veh, ARFIP1 / RFU, FAM179B / Fold change vs veh, FAM179B / RFU, BCL10 / Fold change vs veh, BCL10 / RFU, UHRF1BP1L / Fold change vs veh, UHRF1BP1L / RFU, BET1 / Fold change vs veh, BET1 / RFU, CNOT2 / Fold change vs veh, CNOT2 / RFU, ZNF268 / Fold change vs veh, ZNF268 / Fold change vs veh, ZNF507 / RFU, DGCR2 / Fold change vs veh, DGCR2 / RFU, WDSUB1 / Fold change vs veh, WDSUB1 / Fold change vs veh, HSP90B1 /// MIR3652 / RFU, ADSS / Fold change vs veh, ADSS / RFU, GK / Fold change vs veh, GK / RFU, ZNF148 / Fold change vs veh, ZNF148 / RFU, TAF9 / Fold change vs veh, TAF9 / RFU, SLC1A5 / Fold change vs veh, SLC1A5 / RFU, SLMO2 / Fold change vs veh, SLMO2 / RFU, ABCC4 / Fold change vs veh, ABCC4 / RFU, LOC101060439 /// RAP1B / Fold change vs veh, LOC101060439 /// RAP1B / RFU, RFX7 / Fold change vs veh, RFX7 / RFU, GTPBP10 / Fold change vs veh, GTPBP10 / RFU, CNEP1R1 / Fold change vs veh, CNEP1R1 / RFU, BIVM-ERCC5 /// ERCC5 / Fold change vs veh, BIVM-ERCC5 /// ERCC5 / RFU, ILF3 / Fold change vs veh, ILF3 / RFU 11762660_at / Fold change /veh 11762660_at / RFU VCAN (11757783_s_at) / Fold change /veh VCAN (11757783_s_at) / RFU DDX43 (11728927_at) / Fold change /veh DDX43 (11728927_at) / RFU KRT8 (11758188_x_at) / Fold change /veh KRT8 (11758188_x_at) / RFU NKD1 (11759106_at) / Fold change /veh NKD1 (11759106_at) / RFU SRD5A1 (11742802_a_at) / Fold change /veh SRD5A1 (11742802_a_at) / RFU TPSAB1 /// TPSB2 (11721975_s_at) / Fold change /veh TPSAB1 /// TPSB2 (11721975_s_at) / RFU GSTM3 (11746129_a_at) / Fold change /veh GSTM3 (11746129_a_at) / RFU IL23R (11737362_x_at) / Fold change /veh IL23R (11737362_x_at) / RFU TMEM51 (11727254_a_at) / Fold change /veh TMEM51 (11727254_a_at) / RFU PIWIL2 (11732686_x_at) / Fold change /veh PIWIL2 (11732686_x_at) / RFU ORM1 (11744905_x_at) / Fold change /veh ORM1 (11744905_x_at) / RFU CCDC152 (11743942_at) / Fold change /veh CCDC152 (11743942_at) / RFU ECM1 (11717891_a_at) / Fold change /veh ECM1 (11717891_a_at) / RFU IL23R (11748794_a_at) / Fold change /veh IL23R (11748794_a_at) / RFU TNFAIP8L3 (11732012_x_at) / Fold change /veh TNFAIP8L3 (11732012_x_at) / RFU MBOAT4 (11741988_at) / Fold change /veh MBOAT4 (11741988_at) / RFU 11764193_at / Fold change /veh 11764193_at / RFU TMEM53 (11763286_at) / Fold change /veh TMEM53 (11763286_at) / RFU MAGEB2 (11727129_at) / Fold change /veh MAGEB2 (11727129_at) / RFU TMEM200A (11744735_a_at) / Fold change /veh TMEM200A (11744735_a_at) / RFU CCDC152 (11751479_a_at) / Fold change /veh CCDC152 (11751479_a_at) / RFU FAM211A (11726209_a_at) / Fold change /veh FAM211A (11726209_a_at) / RFU RGS16 (11746705_a_at) / Fold change /veh RGS16 (11746705_a_at) / RFU VCAN (11755009_s_at) / Fold change /veh VCAN (11755009_s_at) / RFU RHOB (11743442_s_at) / Fold change /veh RHOB (11743442_s_at) / RFU RGS16 (11720943_a_at) / Fold change /veh RGS16 (11720943_a_at) / RFU RGS16 (11720944_at) / Fold change /veh RGS16 (11720944_at) / RFU, VPS4B / Fold change vs veh, VPS4B / RFU, CREB1 / Fold change vs veh, CREB1 / RFU, DNAJC13 / Fold change vs veh, DNAJC13 / RFU, GNAQ / Fold change vs veh, GNAQ / RFU, CDK5R1 / Fold change vs veh, CDK5R1 / RFU, ZRANB3 / Fold change vs veh, ZRANB3 / RFU, CUL4A / Fold change vs veh, CUL4A / RFU, CCNY / Fold change vs veh, CCNY / RFU, UFL1 / Fold change vs veh, UFL1 / RFU, COG3 / Fold change vs veh, COG3 / RFU, DIAPH2 / Fold change vs veh, DIAPH2 / RFU, SKA2 / Fold change vs veh, SKA2 / RFU, AFF3 / Fold change vs veh, AFF3 / RFU, LMF1 / Fold change vs veh, LMF1 / RFU, IPO11 / Fold change vs veh, IPO11 / RFU, DFFB / Fold change vs veh, DFFB / RFU, FOXP1 / Fold change vs veh, FOXP1 / RFU, CARD8 / Fold change vs veh, CARD8 / RFU, STRN3 / Fold change vs veh, STRN3 / RFU, ADK / Fold change vs veh, ADK / RFU, RASSF2 / Fold change vs veh, RASSF2 / RFU, WIPF1 / Fold change vs veh, WIPF1 / RFU, LARP1B / Fold change vs veh, LARP1B / RFU, RASA1 / Fold change vs veh, RASA1 / RFU, RB1 / Fold change vs veh, RB1 / RFU, PPFIA1 / Fold change vs veh, PPFIA1 / RFU, MAT2A / Fold change vs veh, MAT2A / RFU, CCT5 / Fold change vs veh, CCT5 / RFU, WDR92 / Fold change vs veh, WDR92 / RFU, CUX1 / Fold change vs veh, CUX1 / RFU, TTC7A / Fold change vs veh, TTC7A / RFU, TMEM135 / Fold change vs veh, TMEM135 / RFU, DEPTOR / Fold change vs veh, DEPTOR / RFU, CPM / Fold change vs veh, CPM / RFU, DNAJB6 / Fold change vs veh, DNAJB6 / RFU, CACNA2D3 / Fold change vs veh, CACNA2D3 / RFU, DTX4 / Fold change vs veh, DTX4 / RFU, TFCP2 / Fold change vs veh, TFCP2 / RFU, GMCL1 /// GMCL1P1 / Fold change vs veh, GMCL1 /// GMCL1P1 / RFU, AEBP2 / Fold change vs veh, AEBP2 / RFU, SNHG1 /// SNORD22 /// SNORD25 /// SNORD26 /// SNORD27 /// SNORD28 /// SNORD29 /// SNORD31 / Fold change vs veh, SNHG1 /// SNORD22 /// SNORD25 /// SNORD26 /// SNORD27 /// SNORD28 /// SNORD29 /// SNORD31 / Fold change (Aza/veh), C12orf56 (ProbeSet 11735607_a_at) / Fold change (ACY-1035/veh), C12orf56 (ProbeSet 11735607_a_at) / Fold change (Aza/veh), FGFR1OP (ProbeSet 11751329_s_at) / Fold change (ACY-1035/veh), FGFR1OP (ProbeSet 11751329_s_at) / Fold change (Aza/veh), VPS36 (ProbeSet 11739960_a_at) / Fold change (ACY-1035/veh), VPS36 (ProbeSet 11739960_a_at) / RFU SYPL1 (11715823_x_at) / Fold change /veh SYPL1 (11715823_x_at) / RFU IGFBP7 (11715501_s_at) / Fold change /veh IGFBP7 (11715501_s_at) / RFU REEP3 (11722064_at) / Fold change /veh REEP3 (11722064_at) / RFU IGLL1 (11728026_x_at) / Fold change /veh IGLL1 (11728026_x_at): dose or concentration left out as unconfirmed
Conditions: MV-4-11 cells, 48 hours

Nc1ncn([C@@H]2O[C@H](CO)[C@@H](O)[C@H]2O)c(=O)n1 [azacitidine]
Fold change /veh TMPRSS6 (11731388_a_at): 1.02
